Source: PMC5481357, “Characterization of Three L-Asparaginases from Maritime Pine (Pinus pinaster Ait.)” (Frontiers in Plant Science, 2017)

Key:
Test in all cases: GOT/MDH-coupled aspartate release, NADH oxidation; Hanes-Woolf
Assay type in all cases: biochemical, Pinus pinaster
Settings in all cases: 50 mM HEPES pH 7.8, 50 mM KCl
PpASPG1 [1] = system: T1, PpASPG1
T1 construct: full ORF (1128 nt, 375 residues incl. 77-residue variable loop), expressed in Nicotiana benthamiana; conventional purification, untagged by the measured beta mass; autocleaved before Thr245 into alpha (26,431 Da, Met1 removed) and beta (13,325 Da); plant ASPG (alpha beta)2

PpASPG1 [2] = system: T1, PpASPG1; remark: listed apart in the source
Description: GOT/MDH-coupled aspartate release, NADH oxidation; Hanes-Woolf on […]1 | changes in the Km and Vmax values for L-Asn and β-L-Asp-L-Ala (Supplementary Table S3)

PpASPG3 = system: T2, PpASPG3
T2 construct: full ORF (918 nt, 305 residues) with C-terminal HA and poly-His tag, expressed in Nicotiana benthamiana, Ni-TED purified; partly processed into alpha and beta subunits

Km (PpASPG1 [1])	Km (PpASPG1 [2]; deletion variant with C-terminal HA and poly-His tag, partly unprocessed precursor)	Km (PpASPG3)	Km (PpASPG1 [2])	Compound
4.58 ± 0.03 mM	7.16 ± 0.88 mM	6.12 ± 0.96 mM	–	NC(=O)C[C@H](N)C(=O)O [L-Asn]
56.7 ± 13.9 mM	–	1.04 ± 0.21 mM	9.44 ± 0.82 mM	C[C@H](NC(=O)C[C@H](N)C(=O)O)C(=O)O [β-L-Asp-L-Ala]
